What was measured:
Assay type in all cases: cell-based
WT HIV-1 = assay: single-round infectivity assay, WT HIV-1 IN vector; settings: Human immunodeficiency virus 1, read-out: EC50 values WT, vector carrying WT HIV-1 IN, single round infection, n = 4; new compounds
Procedure: (§1) Figure 2 Antiviral activities of the new compounds against RAL-resistant mutants. The EC50 values were determined using a vector that carries WT HIV-1 IN and the RAL-resistant mutants in a single round infection assay. […] Error bars represent the standard deviations of independent experiments, n = 4, performed in triplicate. The graph has a maximum value of 550 nM.
(§2) WT and mutant HIV-1 viral vectors were used in single-round infectivity assays to determine the antiviral potencies (EC50 values) of the compounds and the effects of the mutants on the EC50 values as previously described.[30],[54] Single round infectivity measurements were determined as done previously.[38]
(§3) The vector pNLNgoMIVR-ΔENV.LUC has been described previously.[26] To produce the new IN mutants used in this study, the IN open reading frame was removed from pNLNgoMIVR-ΔENV.LUC by digestion with KpnI and SalI, and the resulting fragment was inserted between the KpnI and SalI sites of pBluescript KS+. Using that construct as the wild-type template, we prepared the following HIV-1 IN mutants using the QuikChange II XL site directed mutagenesis kit (Agilent Technologies, Santa Clara, CA) protocol: N117A, N117H, P142A, P142H, P142S, Y143C, Y143H, S230R, R231G, and R231K. The following sense oligonucleotides were used with matching cognate antisense oligonucleotides (not shown) (Integrated DNA Technologies, Coralville, IA) in the mutagenesis: N117A, 5′-[…]-3′; N117H, 5′-[…]-3′; P142A, 5′-[…]-3′; P142H, 5′-[…]-3′; P142S, 5′-[…]-3′; Y143C, 5′- […]-3′; Y143H, 5′-[…]-3′; S230R, 5′- […]-3′; R231G, 5′-[…]-3′; R231K, 5′-[…]-3′.

HIV-1 IN mutant Y143R = assay: single-round infectivity assay, Y143R IN mutant; settings: for ratio of the EC50s (our compound relative to DTG) against Y143R: EC50 compound / EC50 DTG; for EC50: Human immunodeficiency virus 1, read-out: EC50 values Y143R; for FC Y143R: fold change in EC50, IN mutant versus WT HIV-1
Procedure: as §1, §2, §3

HIV-1 IN mutant N155H = assay: single-round infectivity assay, N155H IN mutant; settings: for ratio of the EC50s (our compound relative to DTG) against N155H: EC50 compound / EC50 DTG; for EC50: Human immunodeficiency virus 1, read-out: EC50 values N155H; for FC N155H: fold change in EC50, IN mutant versus WT HIV-1
Procedure: as §1, §2, §3

[1] = tested on: HIV-1 IN double mutant G140S/Q148H; assay: single-round infectivity assay, G140S/Q148H IN double mutant; settings: for ratio of the EC50s (our compound relative to DTG) against G140S/Q148H: EC50 compound / EC50 DTG; for EC50: Human immunodeficiency virus 1, read-out: EC50 values G140S/Q148H; for FC G140S/Q148H: fold change in EC50, IN mutant versus WT HIV-1
Procedure: as §1, §2, §3

HIV-1 IN mutant N117A = assay: single-round infectivity assay, N117A IN mutant; settings: for ratio of the EC50s (our compound relative to DTG) against N117A: EC50 compound / EC50 DTG; for EC50: Human immunodeficiency virus 1, read-out: EC50 values N117A; for FC N117A: fold change in EC50, IN mutant versus WT HIV-1
Procedure: (§4) The EC50 values were determined using a vector that carries the IN mutant in a single round infection assay. […] Error bars represent the standard deviations of independent experiments, n = 4, performed in triplicate.
as §2, §3

HIV-1 IN mutant N117H = assay: single-round infectivity assay, N117H IN mutant; settings: for ratio of the EC50s (our compound relative to DTG) against N117H: EC50 compound / EC50 DTG; for EC50: Human immunodeficiency virus 1, read-out: EC50 values N117H; for FC N117H: fold change in EC50, IN mutant versus WT HIV-1
Procedure: as §4, §2, §3

HIV-1 IN mutant G118R = assay: single-round infectivity assay, G118R IN mutant; settings: for ratio of the EC50s (our compound relative to DTG) against G118R: EC50 compound / EC50 DTG; for EC50: Human immunodeficiency virus 1, read-out: EC50 values G118R
Procedure: as §4, §2, §3

HIV-1 IN mutant S119R = assay: single-round infectivity assay, S119R IN mutant; settings: for ratio of the EC50s (our compound relative to DTG) against S119R: EC50 compound / EC50 DTG; for EC50: Human immunodeficiency virus 1, read-out: EC50 values S119R; for FC S119R: fold change in EC50, IN mutant versus WT HIV-1
Procedure: as §4, §2, §3

HIV-1 IN mutant Y143C = assay: single-round infectivity assay, Y143C IN mutant; settings: for ratio of the EC50s (our compound relative to DTG) against Y143C: EC50 compound / EC50 DTG
Procedure: (§5) Figure 4 Mutations in the β5-α3 loop affect the antiviral potencies of the new compounds. The EC50 values were determined using a vector that carries the IN mutant in a single round infection assay. […] Error bars represent the standard deviations of independent experiments, n = 4, performed in triplicate.
as §2, §3

HIV-1 IN mutant Y143H = assay: single-round infectivity assay, Y143H IN mutant; settings: for ratio of the EC50s (our compound relative to DTG) against Y143H: EC50 compound / EC50 DTG
Procedure: as §5, §2, §3

HIV-1 IN mutant P142A = assay: single-round infectivity assay, P142A IN mutant; settings: for ratio of the EC50s (our compound relative to DTG) against P142A: EC50 compound / EC50 DTG; for EC50: Human immunodeficiency virus 1, read-out: EC50 values P142A
Procedure: as §5, §2, §3

HIV-1 IN mutant P142H = assay: single-round infectivity assay, P142H IN mutant; settings: for ratio of the EC50s (our compound relative to DTG) against P142H: EC50 compound / EC50 DTG; for EC50: Human immunodeficiency virus 1, read-out: EC50 values P142H
Procedure: as §4
Single round infectivity measurements were determined as done previously.[38]
as §3

HIV-1 IN mutant P142S = assay: single-round infectivity assay, P142S IN mutant; settings: for ratio of the EC50s (our compound relative to DTG) against P142S: EC50 compound / EC50 DTG; for EC50: Human immunodeficiency virus 1, read-out: EC50 values P142S
Procedure: as §5, §2, §3

HIV-1 IN mutant S230R = assay: single-round infectivity assay, S230R IN mutant; settings: for ratio of the EC50s (our compound relative to DTG) against S230R: EC50 compound / EC50 DTG; for EC50: Human immunodeficiency virus 1, read-out: EC50 values S230R; for FC S230R: fold change in EC50, IN mutant versus WT HIV-1
Procedure: (§6) Figure 5 Antiviral potencies of the new compounds against IN with mutations in the […]. The EC50 values were determined using a vector that carries the IN mutant in a single round infection assay. […] Error bars represent the standard deviations of independent experiments, n = 4, performed in triplicate.
as §2, §3

HIV-1 IN mutant R231G = assay: single-round infectivity assay, R231G IN mutant; settings: for ratio of the EC50s (our compound relative to DTG) against R231G: EC50 compound / EC50 DTG; for EC50: Human immunodeficiency virus 1, read-out: EC50 values R231G; for FC R231G: fold change in EC50, IN mutant versus WT HIV-1
Procedure: as §6, §2, §3

HIV-1 IN mutant R231K = assay: single-round infectivity assay, R231K IN mutant; settings: for ratio of the EC50s (our compound relative to DTG) against R231K: EC50 compound / EC50 DTG; for EC50: Human immunodeficiency virus 1, read-out: EC50 values R231K, single round infection, n = 4; for FC R231K: fold change in EC50, IN mutant versus WT HIV-1
Procedure: as §6, §2, §3

[2] = fold change in EC50, IN mutant versus WT HIV-1

## O=C(NCc1ccc(F)cc1F)c1c(O)c2c(CO)ccnc2n(O)c1=O [5j, N-(2,4-Difluorobenzyl)-1,4-dihydroxy-5-(hydroxymethyl)-2-oxo-1,2-dihydro-1,8-naphthyridine-3-carboxamide]
WT HIV-1
  EC50: 7.3 ± 0.6 nM
HIV-1 IN mutant Y143R
  ratio of the EC50s (our compound relative to DTG) against Y143R: 0.6
  EC50: 2.6 ± 0.4 nM
  FC Y143R: 0.4
HIV-1 IN mutant N155H
  ratio of the EC50s (our compound relative to DTG) against N155H: 4.1
  EC50: 14.9 ± 3.6 nM
  FC N155H: 2.0
[1]
  ratio of the EC50s (our compound relative to DTG) against G140S/Q148H: 2.5
  EC50: 14.7 ± 1.1 nM
  FC G140S/Q148H: 2.0
HIV-1 IN mutant N117A
  ratio of the EC50s (our compound relative to DTG) against N117A: 26.8
  EC50: 13.4 ± 1.5 nM
  FC N117A: 1.8
HIV-1 IN mutant N117H
  ratio of the EC50s (our compound relative to DTG) against N117H: 1.4
  EC50: 3.4 ± 0.4 nM
  FC N117H: 0.5
HIV-1 IN mutant G118R
  ratio of the EC50s (our compound relative to DTG) against G118R: 2.3
  EC50: 30 ± 5 nM
HIV-1 IN mutant S119R
  ratio of the EC50s (our compound relative to DTG) against S119R: 3.0
  EC50: 7 ± 0.2 nM
  FC S119R: 1.0
HIV-1 IN mutant Y143C
  ratio of the EC50s (our compound relative to DTG) against Y143C: 1.7
HIV-1 IN mutant Y143C; Human immunodeficiency virus 1, read-out: EC50 values Y143C, single round infection, n = 4
  EC50: 2.4 ± 0.1 nM
HIV-1 IN mutant Y143C; [2]
  FC Y143C: 0.3
HIV-1 IN mutant Y143H
  ratio of the EC50s (our compound relative to DTG) against Y143H: 1.2
HIV-1 IN mutant Y143H; Human immunodeficiency virus 1, read-out: EC50 values Y143H, single round infection, n = 4
  EC50: 2.6 ± 0.2 nM
HIV-1 IN mutant Y143H; [2]
  FC Y143H: 0.4
HIV-1 IN mutant P142A
  ratio of the EC50s (our compound relative to DTG) against P142A: 1.9
  EC50: 4.7 ± 0.1 nM
HIV-1 IN mutant P142H
  ratio of the EC50s (our compound relative to DTG) against P142H: 1.3
  EC50: 3.5 ± 0.1 nM
HIV-1 IN mutant P142S
  ratio of the EC50s (our compound relative to DTG) against P142S: 1.6
  EC50: 3.5 ± 0.5 nM
HIV-1 IN mutant S230R
  ratio of the EC50s (our compound relative to DTG) against S230R: 1.7
  EC50: 7.7 ± 1 nM
  FC S230R: 1.1
HIV-1 IN mutant R231G
  ratio of the EC50s (our compound relative to DTG) against R231G: 1.8
  EC50: 2.5 ± 0.6 nM
  FC R231G: 0.3
HIV-1 IN mutant R231K
  ratio of the EC50s (our compound relative to DTG) against R231K: 1.4
  EC50: 5.9 ± 0.2 nM
  FC R231K: 0.8

## CS(=O)(=O)CCc1cnc2c(c1)c(N)c(C(=O)NCc1ccc(F)cc1F)c(=O)n2O [6u, 4-Amino-N-(2,4-difluorobenzyl)-1-hydroxy-6-(2-(methylsulfonyl)ethyl)-2-oxo-1,2-dihydro-1,8-naphthyridine-3-carboxamide]
WT HIV-1
  EC50: 27 ± 3.2 nM
HIV-1 IN mutant Y143R
  ratio of the EC50s (our compound relative to DTG) against Y143R: 6.4
  EC50: 27.5 ± 0.4 nM
  FC Y143R: 1.0
HIV-1 IN mutant N155H
  ratio of the EC50s (our compound relative to DTG) against N155H: 9.1
  EC50: 32.8 ± 6 nM
  FC N155H: 1.2
[1]
  ratio of the EC50s (our compound relative to DTG) against G140S/Q148H: 20.3
  EC50: 118 ± 31.3 nM
  FC G140S/Q148H: 4.4
HIV-1 IN mutant N117A
  ratio of the EC50s (our compound relative to DTG) against N117A: 30.0
  EC50: 15 nM
  FC N117A: 0.6
HIV-1 IN mutant N117H
  ratio of the EC50s (our compound relative to DTG) against N117H: 24.3
  EC50: 58.3 ± 5.9 nM
  FC N117H: 2.2
HIV-1 IN mutant G118R
  ratio of the EC50s (our compound relative to DTG) against G118R: 16.5
  EC50: 214 ± 26.3 nM
HIV-1 IN mutant G118R; [2]
  FC G118R: 7.9
HIV-1 IN mutant S119R
  ratio of the EC50s (our compound relative to DTG) against S119R: 24.5
  EC50: 56.4 ± 11 nM
  FC S119R: 2.1
HIV-1 IN mutant Y143C
  ratio of the EC50s (our compound relative to DTG) against Y143C: 31.4
HIV-1 IN mutant Y143H
  ratio of the EC50s (our compound relative to DTG) against Y143H: 17.0
HIV-1 IN mutant P142A
  ratio of the EC50s (our compound relative to DTG) against P142A: 20.3
  EC50: 50.8 ± 6.4 nM
HIV-1 IN mutant P142H
  ratio of the EC50s (our compound relative to DTG) against P142H: 16.1
  EC50: 45.1 ± 5.2 nM
HIV-1 IN mutant P142S
  ratio of the EC50s (our compound relative to DTG) against P142S: 23.4
  EC50: 51.5 ± 2.4 nM
HIV-1 IN mutant S230R
  ratio of the EC50s (our compound relative to DTG) against S230R: 19.1
  EC50: 88 ± 14.5 nM
  FC S230R: 3.3
HIV-1 IN mutant R231G
  ratio of the EC50s (our compound relative to DTG) against R231G: 22.5
  EC50: 31.5 ± 4 nM
  FC R231G: 1.2
HIV-1 IN mutant R231K
  ratio of the EC50s (our compound relative to DTG) against R231K: 18.7
  EC50: 78.4 ± 9.9 nM
  FC R231K: 2.9
